The text below walks through data of patent US10899738B2 (THE REGENTS OF THE UNIVERSITY OF MICHIGAN, priority 2016, dated 2021).

One assay deals with menin protein (Homo sapiens (Human), UniProt O00255). Kind of assay: biochemical. The class given is binding. The conditions noted are these: FP competitive binding; menin protein 4 nM, FAM-MM2 probe 2 nM. A digest of the protocol: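 Competitive fluorescence polarization assay using FAM-labelled MLL1 peptide probe FAM-MM2 (2 nM final) preincubated with menin (4 nM final) in PBS with 0.02% bovine γ-globulin, 4% DMSO and 0.01% Triton X-100. Compounds were added and incubated 30 min at room temperature. IC50 came from nonlinear regression of competition curves, with Ki also derived.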
Sequence of menin protein (O00255 whole entry): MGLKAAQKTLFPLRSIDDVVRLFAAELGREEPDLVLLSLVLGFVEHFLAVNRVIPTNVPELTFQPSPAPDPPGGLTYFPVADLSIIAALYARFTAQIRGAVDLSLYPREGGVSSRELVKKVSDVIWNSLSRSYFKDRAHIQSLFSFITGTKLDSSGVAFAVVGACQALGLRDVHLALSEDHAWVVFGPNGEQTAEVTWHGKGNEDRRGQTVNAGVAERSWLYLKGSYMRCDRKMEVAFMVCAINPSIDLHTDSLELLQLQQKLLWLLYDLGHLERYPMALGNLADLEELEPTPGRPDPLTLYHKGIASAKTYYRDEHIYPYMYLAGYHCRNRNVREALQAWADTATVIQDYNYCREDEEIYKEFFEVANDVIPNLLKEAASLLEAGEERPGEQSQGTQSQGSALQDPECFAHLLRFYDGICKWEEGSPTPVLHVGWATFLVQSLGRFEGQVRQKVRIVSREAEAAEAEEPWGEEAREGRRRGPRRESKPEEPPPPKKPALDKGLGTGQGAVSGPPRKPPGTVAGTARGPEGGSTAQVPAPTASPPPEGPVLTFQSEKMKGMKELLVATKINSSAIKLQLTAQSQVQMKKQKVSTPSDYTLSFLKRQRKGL
Turning to `c1ccc(CN2CC(C3(C4CCCC4)NCCc4ccccc43)C2)cc1` (stereo not drawn) [compound 57, 1-(1-benzylazetidin-3-yl)-1-cyclopentyl-1,2,3,4-tetrahydroisoquinoline], the “Menin Binding Affinity IC50 (μM)” value is listed as “No inhibition”.

Staying with this assay, now noted: FP competitive binding; menin protein 4 nM, FAM-MM2 probe 2 nM; read-out: Menin Binding Affinity IC50.
On to `N#Cc1cc2cc(CN3CCC(C4(C5CCCC5)NCCc5ccccc54)CC3)ccc2[nH]1` (stereo not drawn) [compound 114, 5-((4-(1-cyclopentyl-1,2,3,4-tetrahydroisoquinolin-1-yl)piperidin-1-yl)methyl)-1H-indol-2-carbonitrile], for which the IC50 is 32600 nM.

Take `CC(=O)O[C@H]1CCC[C@@H]1C(C#N)(c1cccc(C(F)(F)F)c1)C1CCN(CC2CN(c3ccc(C#N)cc3)C2)CC1` (mixture of isomers) [compound 417, rac-(1S,2R)-2-(cyano(1-((1-(4-cyanophenyl)azetidin-3-yl)methyl)piperidin-4-yl)(3-(trifluoromethyl)phenyl)methyl)cyclopentyl acetate]: the IC50 stood at 1610 nM.

For the compound `COC(=O)N1Cc2ccccc2C(C2CCN(CCCOc3ccc(C#N)cc3)CC2)([C@@H]2CCC[C@H]2OC)C1` (mixture of isomers) [compound 323, methyl rac-4-(1-(3-(4-cyanophenoxy)propyl)piperidin-4-yl)-4-((1S,2R)-2-methoxycyclopentyl)-3,4-dihydroisoquinoline-2(1H)-carboxylate], the IC50 is 10400 nM.

On to `N#Cc1ccc(OCCCN2CC=C(C3(C4CCCC4)NCCc4ccccc43)CC2)cc1` (stereo not drawn) [compound 79, 4-(3-(4-(1-cyclopentyl-1,2,3,4-tetrahydroisoquinolin-1-yl)-3,6-dihydropyridin-1(2H)-yl)propoxy)benzonitrile], for which the IC50 is 700 nM.

`O=C(CN1CCC(C2(C3CCCC3)NCCc3ccccc32)CC1)N1CCCC1` (stereo not drawn) [compound 74, 2-(4-(1-cyclopentyl-1,2,3,4-tetrahydroisoquinolin-1-yl)piperidin-1-yl)-1-(pyrrolidin-1-yl)ethan-1-one]: the IC50 is 3100 nM.

On to `CS(=O)(=O)CCC(C#N)(c1ccccc1)C1CCN(CCCOc2ccc(C#N)cc2)CC1` (stereo not drawn) [compound 303, 4-(3-(4-(1-cyano-3-(methylsulfonyl)-1-phenylpropyl)piperidin-1-yl)propoxy)benzonitrile], for which the IC50 is 75300 nM.

For `CC(=O)OC[C@H]1CCC[C@@H]1C(C#N)(c1ccccc1)C1CCN(CC2CN(c3ccc(S(=O)(=O)C4CC4)cc3)C2)CC1` (mixture of isomers) [compound 261, rac-((1S,2S)-2-(cyano(1-((1-(4-(cyclopropylsulfonyl)phenyl)azetidin-3-yl)methyl)piperidin-4-yl)(phenyl)methyl)cyclopentyl) methyl acetate], the IC50 is 9300 nM.

Consider `N#CC(c1ccccc1)(C1CCN(CC2CN(c3ccc(S(=O)(=O)c4ccncc4)cc3)C2)CC1)[C@H]1CCC[C@@H]1OC(=O)N1CCC1` (mixture of isomers) [compound 221, rac-(1S,2R)-2-(cyano(phenyl)(1-((1-(4-(pyridin-4-ylsulfonyl)phenyl)azetidin-3-yl)methyl)piperidin-4-yl)methyl)cyclopentyl azetidine-1-carboxylate], for which the IC50 was determined as 75 nM.

On to `CS(=O)(=O)c1ccc(N2CC(CN3CCC(C4(C5CCCC5)NCCc5ccccc54)CC3)C2)cc1` (stereo not drawn) [compound 132, 1-cyclopentyl-1-(1-((1-(4-(methylsulfonyl)phenyl)azetidin-3-yl)methyl)piperidin-4-yl)-1,2,3,4-tetrahydroisoquinoline], for which the IC50 is 77 nM.

Consider `CC(C)C(=O)O[C@H]1CCC[C@@H]1C(C#N)(c1ccccc1)C1CCN(CC2CN(c3ccc(S(=O)(=O)c4ccncc4)cc3)C2)CC1` (mixture of isomers) [compound 193, rac-(1S,2R)-2-(cyano(phenyl)(1-((1-(4-(pyridin-4-ylsulfonyl)phenyl)azetidin-3-yl)methyl)piperidin-4-yl)methyl)cyclopentyl isobutyrate], for which the IC50 worked out at 237 nM.

On to `Cn1cccc1S(=O)(=O)c1ccc(N2CC(CN3CCC(C4(C5CCCC5)NCCc5ccccc54)CC3)C2)cc1` (stereo not drawn) [compound 98, 1-cyclopentyl-1-(1-((1-(4-((1-methyl-1H-pyrrol-2-yl)sulfonyl)phenyl)azetidin-3-yl)methyl)piperidin-4-yl)-1,2,3,4-tetrahydroisoquinoline], for which the 50% inhibitory concentration (IC50) was found to be 21 nM.

For the compound `CC(=O)O[C@@H]1CCC[C@H]1C(C#N)(c1ccccc1)C1CCN(CC2CN(c3ccc(S(C)(=O)=O)cc3)C2)CC1` (mixture of isomers) [compound 184, rac-(1R,2S)-2-(cyano(1-((1-(4-(methylsulfonyl)phenyl)azetidin-3-yl)methyl)piperidin-4-yl)(phenyl)methyl)cyclopentyl actate], the IC50 stood at 2600 nM.

As to `N#CC(c1ccccc1)(C1CCN(CC2CN(c3ccc(S(=O)(=O)c4ccncc4)cc3)C2)CC1)[C@H]1CCC[C@@H]1OC(=O)C1CCC1` (mixture of isomers) [compound 209, rac-(1S,2R)-2-(cyano(phenyl)(1-((1-(4-(pyridin-ylsulfonyl)phenyl)azetidin-3-yl)methyl)piperidin-4-yl)methyl)cyclopentyl cyclobutanecarboxylate], the IC50 came to 111 nM.

With `CC(=O)N[C@H]1CCC[C@@H]1C(C#N)(c1ccccc1)C1CCN(CC2CN(c3ccc(C#N)cc3)C2)CC1` (mixture of isomers) [compound 382, rac-N-((1S,2R)-2-(cyano(1-((1-(4-cyanophenyl)azetidin-3-yl)methyl)piperidin-4-yl)(phenyl)methyl)cyclopentyl)acetamide], the IC50 worked out at 102 nM.

Regarding `CC(=O)O[C@@H]1CCC[C@H]1C(C#N)(c1ccccc1)C1CCN(CC2CN(c3ccc(S(=O)(=O)c4ccncc4)cc3)C2)CC1` (mixture of isomers) [compound 207, rac-(1R,2S)-2-(cyano(phenyl)(1-((1-(4-(pyridin-4-ylsulfonyl)phenyl)azetidin-3-yl)methyl)piperidin-4-yl)methyl)cyclopentyl acetate], the IC50 was found to be 2800 nM.

Regarding `CNC(=O)O[C@@H]1CCC[C@H]1C(C#N)(c1ccccc1)C1CCN(CC2(C)CN(c3ccc(S(=O)(=O)c4cnn(C)c4)cc3)C2)CC1` (mixture of isomers) [compound 371, rac-(1R,2S)-2-(cyano(1-((3-methyl-1-(4-((1-methyl-1H-pyrazol-4-yl)sulfonyl)phenyl)azetidin-3-yl)methyl)piperidin-4-yl)(phenyl)methyl)cyclopentyl methylcarbamate], the IC50 was 2100 nM.

For the compound `CCC1CCCC1C(C#N)(c1ccccc1)C1CCN(CC2CN(c3ccc(S(=O)(=O)c4ccncc4)cc3)C2)CC1` (stereo not drawn) [compound 338, 2-(2-ethylcyclopentyl)-2-phenyl-2-(1-((1-(4-(pyridin-4-ylsulfonyl)phenyl)azetidin-3-yl)methyl)piperidin-4-yl)acetonitrile], the IC50 turned out to be 10200 nM.

Regarding `CC1CN(CCCOc2ccc(C#N)cc2)CCC1C(C#N)(c1ccccc1)C1CCCC1` (stereo not drawn) [compound 120, 4-(3-(4-(cyano(cyclopentyl)(phenyl)methyl)-3-methylpiperidin-1-yl)propoxy)benzonitrile], the IC50 worked out at 5700 nM.

With `CC(=O)O[C@@H]1CCC[C@H]1C(C#N)(c1cccc(F)c1)C1CCN(CC2CN(c3ccc(CC(F)(F)F)cc3)C2)CC1` (mixture of isomers) [compound 420, rac-(1R,2S)-2-(cyano(3-fluorophenyl)(1-((1-(4-(2,2,2-trifluoroethyl)phenyl)azetidin-3-yl)methyl)piperidin-4-yl)methyl)cyclopentyl acetate], the IC50 stood at 11600 nM.

In the case of `CCCC(=O)N1CCCCC1C1(C2CCN(CCCOc3ccc(C#N)cc3)CC2)CN(C)Cc2ccccc21` (stereo not drawn) [compound 302, 4-(3-(4-(4-(1-butyrylpiperidin-2-yl)-2-methyl-1,2,3,4-tetrahydroisoquinolin-4-yl)piperidin-1-yl)propoxy)benzonitrile], the IC50 was 6500 nM.

`COC(=O)N[C@H]1CCC[C@@H]1C(C#N)(c1ccccc1)C1CCN(CCC#Cc2ccc(S(=O)(=O)C(F)(F)F)cc2)CC1` (mixture of isomers) [compound 405, methyl rac-((1S,2R)-2-(cyano(phenyl)(1-(4-(4-((trifluoromethyl)sulfonyl)phenyl)but-3-yn-1-yl)piperidin-4-yl)methyl)cyclopentyl)carbamate]: the IC50 was found to be 174 nM.

For the compound `N#CC(c1ccccc1)(C1CCN(CC2CN(c3ccc(S(=O)(=O)c4ccncc4)cc3)C2)CC1)[C@@H]1CCC[C@H]1OC(N)=O` (mixture of isomers) [compound 212, rac-(1R,2S)-2-(cyano(phenyl)(1-((1-(4-(pyridin-4-ylsulfonyl)phenyl)azetidin-3-yl)methyl)piperidin-4-yl)methyl)cyclopentyl carbamate], the IC50 amounted to 454 nM.

Turning to `COCCCN1CCC(C2(C3CCCC3)NCCc3ccccc32)CC1` (stereo not drawn) [compound 73, 1-cyclopentyl-1-(1-(3-methoxypropyl)piperidin-4-yl)-1,2,3,4-tetrahydroisoquinoline], the IC50 amounted to 9900 nM.

As to `CCO[C@@H]1CCC[C@H]1C(C#N)(c1ccccc1)C1CCN(CC2CN(c3ccc(S(=O)(=O)c4ccncc4)cc3)C2)CC1` (mixture of isomers) [compound 199, rac-2-((1S,2R)-2-ethoxycyclopentyl)-2-phenyl-2-(1-((1-(4-(pyridin-4-ylsulfonyl)phenyl)azetidin-3-yl)methyl)piperidin-4-yl)acetonitrile], the IC50 worked out at 9000 nM.

`Cc1nccn1CC(c1ccccc1)(C1CCCC1)C1CCN(CCCOc2ccc(C#N)cc2)CC1` (stereo not drawn) [compound 41, 4-(3-(4-(1-cyclopentyl-2-(2-methyl-1H-imidazol-1-yl)-1-phenylethyl)piperidin-1-yl)propoxy)benzonitrile]: the IC50 was 166 nM.

Regarding `N#Cc1ccc2c(c1)CCN(C(=O)CN1CCC(C3(C4CCCC4)NCCc4ccccc43)CC1)C2` (stereo not drawn) [compound 83, 2-(2-(4-(1-cyclopentyl-1,2,3,4-tetrahydroisoquinolin-1-yl)piperidin-1-yl)acetyl)-1,2,3,4-tetrahydroisoquinoline-6-carbonitrile], the IC50 came to 847 nM.
